Reference: patent US10723705B2, “Heterocyclic compounds and uses thereof” (Incyte Corporation, priority 2015, dated 2020)
Read-outs that look alike come from different tables or passages of the source.

Molecular target: Human recombinant Histone Deacetylase 8 (HDAC8) (Homo sapiens (Human), UniProt Q9BY41)
Assay: HDAC8 Enzymatic Assay (HDAC-Glo I/II luminescence)
Format: biochemical
Method: HDAC-Glo™ I/II Assay Kit was purchased from Promega Corporation (Madison, Wis.), including the following components: HDAC-Glo I/II Buffer (25 mM Tris buffer, pH 8.0, supplemented with 137 mM: NaCl, 2.7 mM KCl, 1% v/v Triton X-100 and 1 mM: MgCl2), luminogenic substrates Boc-GAK(Ac)-aminoluciferin (HDAC-Glo I/II substrate), proprietary developer reagent (containing trypsin). Human recombinant Histone Deacetylase 8 (HDAC8) was purchased from Enzo Life Sciences (Plymouth Meeting, Pa.).
The HDAC8 reaction was performed at room temperature in white 384-well polystyrene, flat-bottom microtiter plate (Greiner Bio-one, Monroe, N.C.) in a final volume of 20 μL. Test compounds were first diluted serially in DMSO and 100 nL were transferred to the plate wells by Echo 550 (Labcyte, Sunnyvale, Calif.) before the addition of other reaction components. The final concentration of DMSO in the assay was 0.5%. The HDAC-Glo I/II assay reagent was prepared by rehydration of lyophilized HDAC-Glo I/II substrate in 10 mL. HDAC-Glo I/II assay buffer followed with the addition of 10 μL of developer reagent. 10 uL of 3 nM HDAC8 in the HDAC-Glo I/II assay buffer were first dispensed into the microliter plate containing the compounds and incubated at room temperature for 30 min. The reactions were initiated with the addition of 10 uL HDAC-Glo I/II assay reagent with Multidrop (Thermo, Waltham, Mass.). The final concentration of HDAC8 and HDAC-Glo I/II substrate in the reaction were 1.5 nM and 50 μM, respectively. The assay plate was mixed for 1 min by orbital shaking (500 rpm) and centrifuged for 1 min at 1500 rpm. After 15 min at room temperature, luminescence signals were measured on TopCount (Perkin Elmer). Wells with no compound served as the positive controls and wells containing no HDAC8 were used as negative controls. IC50 determination was performed by fitting the curve of percentage control activity versus the log of the compound concentration using the GraphPad Prism 6.0 software.

[1] = class symbols, Table 14, read-out: HDAC8 IC50

Human recombinant Histone Deacetylase 8 (HDAC8), sequence (Q9BY41 whole entry): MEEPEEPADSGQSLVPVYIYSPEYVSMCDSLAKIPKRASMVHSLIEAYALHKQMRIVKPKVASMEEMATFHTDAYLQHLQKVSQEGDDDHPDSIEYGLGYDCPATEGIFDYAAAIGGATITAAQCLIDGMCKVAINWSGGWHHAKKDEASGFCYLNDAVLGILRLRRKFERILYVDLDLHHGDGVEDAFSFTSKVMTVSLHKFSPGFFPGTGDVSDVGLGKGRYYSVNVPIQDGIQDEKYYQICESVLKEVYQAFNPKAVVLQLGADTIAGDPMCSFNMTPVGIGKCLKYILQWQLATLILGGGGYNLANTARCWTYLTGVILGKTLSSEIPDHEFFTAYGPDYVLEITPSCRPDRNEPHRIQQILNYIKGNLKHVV

Cn1nccc1-c1ccn2c(C(Cc3ccccc3)C(=O)NO)cnc2c1 (centres unmarked) [Compound I-0115, N-hydroxy-2-(7-(1-methyl-1H-pyrazol-5-yl)imidazo[1,2-a]pyridin-3-yl)-3-phenylpropanamide]
IC50 [1]: 200 to 500 nM

O=C(NO)C(Cc1ccccc1)n1cc2ccc(-c3cncnc3)cc2n1 (centres unmarked) [Compound I-0007, N-hydroxy-3-phenyl-2-(6-(pyrimidin-5-yl)-2H-indazol-2-yl)propanamide]
IC50 [1]: 200 to 500 nM

O=C(NO)C(Cc1ccccc1)n1nc2c(-c3cncnc3)nccc2c1C#CC1CC1 (centres unmarked) [Compound I-0207, 2-(3-(cyclopropylethynyl)-7-(pyrimidin-5-yl)-2H-pyrazolo[3,4-c]pyridin-2-yl)-N-hydroxy-3-phenylpropanamide]
IC50 [1]: ≤ 50 nM

O=C(NO)C(Cc1ccccc1)n1ncc2cc(-c3ccncc3)cnc21 (centres unmarked) [Compound I-0133, N-hydroxy-3-phenyl-2-(5-(pyridin-4-yl)-1H-pyrazolo[3,4-b]pyridin-1-yl)propanamide]
IC50 [1]: > 500 nM

O=C(NO)C(Cc1ccccc1)n1cc2cccc(CNCC3CC3)c2n1 (centres unmarked) [Compound I-0181, 2-(7-((cyclopropylmethylamino)methyl)-2H-indazol-2-yl)-N-hydroxy-3-phenylpropanamide]
IC50 [1]: > 500 nM

Cc1cccc2c(C#CC3CC3)n(C(Cc3ccccc3)C(=O)NO)nc12 (centres unmarked) [Compound I-0161, 2-(3-(cyclopropylethynyl)-7-methyl-2H-indazol-2-yl)-N-hydroxy-3-phenylpropanamide]
IC50 [1]: ≤ 50 nM

CN(C)C(=O)c1ccc(-c2cccc3cn(C(Cc4ccccc4)C(=O)NO)nc23)cc1 (centres unmarked) [Compound I-0110, 4-(2-(1-(hydroxyamino)-1-oxo-3-phenylpropan-2-yl)-2H-indazol-7-yl)-N,N-dimethylbenzamide]
IC50 [1]: ≤ 50 nM

Cn1nccc1-c1ccc2c(cnn2C(Cc2ccccc2)C(=O)NO)n1 (centres unmarked) [Compound I-0072, N-hydroxy-2-(5-(1-methyl-1H-pyrazol-5-yl)-1H-pyrazolo[4,3-b]pyridin-1-yl)-3-phenylpropanamide]
IC50 [1]: 200 to 500 nM

CN1CCN(c2ccc(-c3cccc4nn(C(Cc5ccccc5)C(=O)NO)cc34)cn2)CC1 (centres unmarked) [Compound I-0149, N-hydroxy-2-(4-(6-(4-methylpiperazin-1-yl)pyridin-3-yl)-2H-indazol-2-yl)-3-phenylpropanamide]
IC50 [1]: 50 to 200 nM

O=C(NO)C(Cc1ccccc1)n1cc2cccc(CN3CCC4(CC3)COC4)c2n1 (centres unmarked) [Compound I-0186, 2-(7-(2-oxa-7-azaspiro[3.5]nonan-7-ylmethyl)-2H-indazol-2-yl)-N-hydroxy-3-phenylpropanamide]
IC50 [1]: > 500 nM

O=C(NCCC1CCOCC1)c1cccc2cn(C(Cc3ccccc3)C(=O)NO)nc12 (centres unmarked) [Compound I-0178, 2-(1-(hydroxyamino)-1-oxo-3-phenylpropan-2-yl)-N-(2-(tetrahydro-2H-pyran-4-yl)ethyl)-2H-indazole-7-carboxamide]
IC50 [1]: ≤ 50 nM

O=C(NO)C(Cc1ccccc1)n1nc2c(C3CC3)cccc2c1C#CC1CC1 (centres unmarked) [Compound I-0160, 2-(7-cyclopropyl-3-(cyclopropylethynyl)-2H-indazol-2-yl)-N-hydroxy-3-phenylpropanamide]
IC50 [1]: ≤ 50 nM

N#Cc1ccc(-c2ccc3c(cnn3C(Cc3ccccc3)C(=O)NO)c2)cc1 (centres unmarked) [Compound I-0015, 2-(5-(4-cyanophenyl)-1H-indazol-1-yl)-N-hydroxy-3-phenylpropanamide]
IC50 [1]: 200 to 500 nM

O=C(NO)C(Cc1ccccc1)c1cnc2c(-c3cccnc3)cccn12 (centres unmarked) [Compound I-0163, N-hydroxy-3-phenyl-2-(8-(pyridin-3-yl)imidazo[1,2-a]pyridin-3-yl)propanamide]
IC50 [1]: > 500 nM

O=C(NO)C(Cc1ccccc1)n1cc2cc(-c3ccccc3)ccc2n1 (centres unmarked) [Compound I-0036, N-hydroxy-3-phenyl-2-(5-phenyl-2H-indazol-2-yl)propanamide]
IC50 [1]: > 500 nM

COc1ncc(-c2ccc3nn(C(Cc4ccccc4)C(=O)NO)c(C#CC4CC4)c3c2)cn1 (centres unmarked) [Compound I-0031, 2-(3-(cyclopropylethynyl)-5-(2-methoxypyrimidin-5-yl)-2H-indazol-2-yl)-N-hydroxy-3-phenylpropanamide]
IC50 [1]: ≤ 50 nM

NC(=O)c1ccc(-c2nccc3c(C#CC4CC4)n(C(Cc4ccccc4)C(=O)NO)nc23)cc1 (centres unmarked) [Compound I-0140, 4-(3-(cyclopropylethynyl)-2-(1-(hydroxyamino)-1-oxo-3-phenylpropan-2-yl)-2H-pyrazolo[3,4-c]pyridin-7-yl)benzamide]
IC50 [1]: ≤ 50 nM

O=C(NO)C(Cc1ccccc1)n1ncc2cc(-c3ccncc3)ccc21 (centres unmarked) [Compound I-0011, N-hydroxy-3-phenyl-2-(5-pyridin-4-yl-1H-indazol-1-yl)propanamide]
IC50 (HDAC8, read-out: IC50): 87 nM | IC50 [1]: 50 to 200 nM

O=C(NO)C(Cc1ccccc1)n1ccc2cc(Cl)ncc21 (centres unmarked) [Compound I-0194, 2-(5-chloro-1H-pyrrolo[2,3-c]pyridin-1-yl)-N-hydroxy-3-phenylpropanamide]
IC50 [1]: > 500 nM

Cn1nccc1-c1cccc2nn(C(Cc3ccccc3)C(=O)NO)cc12 (centres unmarked) [Compound I-0061, N-hydroxy-2-(4-(1-methyl-1H-pyrazol-5-yl)-2H-indazol-2-yl)-3-phenylpropanamide]
IC50 [1]: 200 to 500 nM

O=C(NO)C(Cc1ccccc1)n1nc2ccc(-c3ccccc3)cc2c1C#CC1CC1 (centres unmarked) [Compound I-0025, 2-[3-(Cyclopropylethynyl)-5-phenyl-2H-indazol-2-yl]-hydroxy-3-phenylpropanamide]
IC50 (HDAC8, read-out: IC50): 134 nM | IC50 [1]: 50 to 200 nM

O=C(NO)C(Cc1ccccc1)n1cc2ccnc(Cl)c2n1 (centres unmarked) [Compound I-0129, 2-(7-chloro-2H-pyrazolo[3,4-c]pyridin-2-yl)-N-hydroxy-3-phenylpropanamide]
IC50 [1]: 200 to 500 nM

O=C(NO)C(Cc1ccccc1)n1cc2cccc(CN3CCC(F)(F)CC3)c2n1 (centres unmarked) [Compound I-0189, 2-(7-((4,4-difluoropiperidin-1-yl)methyl)-2H-indazol-2-yl)-N-hydroxy-3-phenylpropanamide]
IC50 [1]: 200 to 500 nM

CN1CCN(c2ccc(-c3ccn4c(C(Cc5ccccc5)C(=O)NO)cnc4c3)cc2)CC1 (centres unmarked) [Compound I-0151, N-hydroxy-2-(7-(4-(4-methylpiperazin-1-yl)phenyl)imidazo[1,2-a]pyridin-3-yl)-3-phenylpropanamide]
IC50 [1]: > 500 nM

O=C(NO)C(Cc1ccccc1)n1cc2ccccc2n1 (centres unmarked) [Compound I-0002, N-hydroxy-2-(2H-indazol-2-yl)-3-phenylpropanamide]
IC50 [1]: 200 to 500 nM

CN1CCC(c2cccc3nn(C(Cc4ccccc4)C(=O)NO)cc23)CC1 (centres unmarked) [Compound I-0065, N-hydroxy-2-(4-(1-methylpiperidin-4-yl)-2H-indazol-2-yl)-3-phenylpropanamide]
IC50 [1]: > 500 nM

Cn1nc(C(Cc2ccccc2)C(=O)NO)c2ccc(Cl)cc21 (centres unmarked) [Compound I-0202, 2-(6-Chloro-1-methyl-1H-indazol-3-yl)-N-hydroxy-3-phenylpropanamide]
IC50 (HDAC8, read-out: IC50): 39 nM

O=C(NO)C(Cc1ccccc1)n1cc2ccc(C(F)(F)F)cc2n1 (centres unmarked) [Compound I-0038, N-hydroxy-3-phenyl-2-(6-(trifluoromethyl)-2H-indazol-2-yl)propanamide]
IC50 [1]: > 500 nM

Cn1cc(-c2ccc3c(cnn3C(Cc3ccccc3)C(=O)NO)c2)cn1 (centres unmarked) [Compound I-0105, N-hydroxy-2-(5-(1-methyl-1H-pyrazol-4-yl)-1H-indazol-1-yl)-3-phenylpropanamide]
IC50 [1]: 50 to 200 nM

Cc1cc2cn(C(Cc3ccccc3)C(=O)NO)nc2cc1Br (centres unmarked) [Compound I-0039, 2-(6-bromo-5-methyl-2H-indazol-2-yl)-N-hydroxy-3-phenylpropanamide]
IC50 [1]: > 500 nM
